This experiment has as its target RAC-alpha serine/threonine-protein kinase [E49C,C296S,C310S,C344S] (Homo sapiens, UniProt P31749, C296S/C310S/C344S/E49C). In words: iFLik Assay. As to conditions: pH 7.4. Here is the method:
Labeled Akt1 was diluted to 200 nM in the measurement buffer consisting of 50 mMHEPES pH 7.4, 200 mM NaCl, and 0.01% Triton-X 100. Dilution series of candidate compounds were prepared in DMSO at 21× the final desired concentration. Compounds (0.5 μL) were then mixed with labeled Akt1 (10 μL) in triplicate and with measurement buffer alone (background fluorescence control) in quadruplicate at 12different concentrations. The final compound concentrations ranged from 0.8 nM to 500 μM and each well contained 5% v/v DMSO after mixing. Plates were then covered with an adhesive plastic foil and incubated for 2 h at RT prior to measurement of emission intensities at fluorophore-specific wavelengths

Sequence of RAC-alpha serine/threonine-protein kinase [E49C,C296S,C310S,C344S] (P31749 whole entry E49C/C296S/C310S/C344S): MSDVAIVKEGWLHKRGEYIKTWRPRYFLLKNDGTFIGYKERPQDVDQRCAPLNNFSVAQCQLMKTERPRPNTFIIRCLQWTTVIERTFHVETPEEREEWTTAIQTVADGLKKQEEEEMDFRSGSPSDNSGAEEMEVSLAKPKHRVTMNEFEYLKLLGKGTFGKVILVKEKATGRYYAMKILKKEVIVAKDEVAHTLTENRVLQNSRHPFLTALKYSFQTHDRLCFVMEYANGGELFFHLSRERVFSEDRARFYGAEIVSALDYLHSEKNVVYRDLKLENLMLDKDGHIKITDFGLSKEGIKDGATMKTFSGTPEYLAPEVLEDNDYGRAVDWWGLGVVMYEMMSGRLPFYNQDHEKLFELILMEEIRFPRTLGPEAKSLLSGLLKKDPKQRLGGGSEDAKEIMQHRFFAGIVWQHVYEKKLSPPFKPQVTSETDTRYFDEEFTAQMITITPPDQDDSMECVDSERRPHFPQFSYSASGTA

By Kd is commonly meant a measure of binding affinity in units of concentration. A low value points to tighter binding. In the case of `Cc1ccc(-n2cc(-c3ccccc3)c3c(NCc4cccs4)ncnc32)cc1Cl` [7-(3-chloro-4-methylphenyl)-5-phenyl-N-(thiophen-2-ylmethyl)-7H-pyrrolo[2,3-d]pyrimidin-4-amine (8g)], the Kd turned out to be 264 µM.

As to `O=c1[nH]ccc2nc(-c3ccc(CN4CCN(c5ncccn5)CC4)cc3)c(-c3ccccc3)cc12` [3-Phenyl-2-(4-((4-(pyrimidin-2-yl)piperazin-1-yl)methyl)phenyl)-1,6-naphthyridin-5(6H)-one (7f)], the Kd worked out at 1.1 µM.

For `Cc1cccc(-n2cc(-c3ccccc3)c3c(NCc4cccs4)ncnc32)c1` [7-(3-methylphenyl)-5-phenyl-N-(thiophen-2-ylmethyl)-7H-pyrrolo[2,3-d]pyrimidin-4-amine (8e)], the Kd is 99 µM.

In turn, `O=c1[nH]ccc2nc(-c3ccc(CN4CCC(n5c(=O)[nH]c6cc(Cl)ccc65)CC4)cc3)c(-c3ccccc3)cc12` [2-(4-((4-(5-Chloro-2-oxo-2,3-dihydro-1H-benzo[d]imidazol-1-yl)piperidin-1-yl)methyl)phenyl)-3-phenyl-1,6-naphthyridin-5(6H)-one (7b)] returned a Kd of 0.15 µM.

The molecule `O=C(C1CCCO1)N1CCN(Cc2ccc(-c3nc4cc[nH]c(=O)c4cc3-c3ccccc3)cc2)CC1` (centres undefined) [3-Phenyl-2-(4-((4-(tetrahydrofuran-2-carbonyl)piperazin-1-yl)methyl)phenyl)-1,6-naphthyridin-5(6H)-one (7g)] displayed a Kd of 8 µM.

Molecule `COC(=O)C1CCN(Cc2ccc(-c3nc4cc[nH]c(=O)c4cc3-c3ccccc3)cc2)CC1` [Methyl 1-(4-(5-oxo-3-phenyl-5,6-dihydro-1,6-naphthyridin-2-yl)benzyl)piperidine-4-carboxylate (7d)] showed a Kd of 0.9 µM.

The molecule `O=c1[nH]ccc2nc(-c3ccc(CN4CCc5ccccc5C4)cc3)c(-c3ccccc3)cc12` [2-(4-((3,4-Dihydroisoquinolin-2(1H)-yl)methyl)phenyl)-3-phenyl-1,6-naphthyridin-5(6H)-one (7c)] returned a dissociation constant (Kd) of 6 µM.

Regarding `COc1ccc(N2CCN(Cc3ccc(-c4nc5cc[nH]c(=O)c5cc4-c4ccccc4)cc3)CC2)cc1` [2-(4-((4-(4-Methoxyphenyl)piperazin-1-yl)methyl)phenyl)-3-phenyl-1,6-naphthyridin-5(6H)-one (7e)], binding was characterised by a dissociation constant (Kd) of 7.2 µM.

For the molecule `O=c1[nH]ccc2nc(-c3ccc(CN4CCC(n5c(=O)[nH]c6ccccc65)CC4)cc3)c(-c3ccccc3)cc12` [2-(4-((4-(2-Oxo-2,3-dihydro-1H-benzo[d]imidazol-1-yl)piperidin-1-yl)methyl)phenyl)-3-phenyl-1,6-naphthyridin-5(6H)-one (7a)], the Kd worked out at 0.41 µM.

Turning to `Fc1ccc(-n2cc(-c3ccccc3)c3c(NCc4ccccn4)ncnc32)cc1` [7-(4-fluorophenyl)-5-phenyl-N-(pyridin-2-ylmethyl)-7H-pyrrolo[2,3-d]pyrimidin-4-amine (8c)], the dissociation constant Kd worked out at 20 µM.

`c1ccc(-c2cn(-c3ccccc3)c3ncnc(NCc4cccs4)c23)cc1` [5,7-diphenyl-N-(thiophen-2-ylmethyl)-7H-pyrrolo[2,3-d]pyrimidin-4-amine (8d)] had a Kd of 2.2 µM.

`Cc1ccc(-n2cc(-c3ccccc3)c3c(NCc4cccnc4)ncnc32)cc1` [7-(4-methylphenyl)-5-phenyl-N-(pyridin-3-ylmethyl)-7H-pyrrolo[2,3-d]pyrimidin-4-amine (8b)] yielded a Kd of 7.8 µM.

Consider `Cc1ccc(-n2cc(-c3ccccc3)c3c(NCc4cccs4)ncnc32)cc1` [7-(4-methylphenyl)-5-phenyl-N-(thiophen-2-ylmethyl)-7H-pyrrolo[2,3-d]pyrimidin-4-amine (8a)], for which the Kd amounted to 2.2 µM.

As to `Cc1ccc(-n2cc(-c3ccccc3)c3c(NCc4ccccc4)ncnc32)cc1` [N-benzyl-7-(4-methylphenyl)-5-phenyl-7H-pyrrolo[2,3-d]pyrimidin-4-amine (8f)], the Kd stood at 6 µM.

These data come from BindingDB's records for doi:10.1021/cb500355c (2015).
